Activity calls are given as the source filed them.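 The calls were made as follows: active = in confirmatory dose-response testing, peak deubiquitinase inhibition of 30% or more; inactive = the rest.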
What follows are molecules tested against Ubiquitin carboxyl-terminal hydrolase 28 (Homo sapiens) (UniProt Q96RU2) (assay: Ubiquitin-specific peptidase 28 DUB inhibitors, biochemical concentration-dependence assay, validation of primary screening hits (AID 1645866)). Conditions: purified USP28, ubiquitin-rhodamine fluorescence, 30 min.
Ubiquitin carboxyl-terminal hydrolase 28 (Homo sapiens), sequence (Q96RU2 whole entry, looked up): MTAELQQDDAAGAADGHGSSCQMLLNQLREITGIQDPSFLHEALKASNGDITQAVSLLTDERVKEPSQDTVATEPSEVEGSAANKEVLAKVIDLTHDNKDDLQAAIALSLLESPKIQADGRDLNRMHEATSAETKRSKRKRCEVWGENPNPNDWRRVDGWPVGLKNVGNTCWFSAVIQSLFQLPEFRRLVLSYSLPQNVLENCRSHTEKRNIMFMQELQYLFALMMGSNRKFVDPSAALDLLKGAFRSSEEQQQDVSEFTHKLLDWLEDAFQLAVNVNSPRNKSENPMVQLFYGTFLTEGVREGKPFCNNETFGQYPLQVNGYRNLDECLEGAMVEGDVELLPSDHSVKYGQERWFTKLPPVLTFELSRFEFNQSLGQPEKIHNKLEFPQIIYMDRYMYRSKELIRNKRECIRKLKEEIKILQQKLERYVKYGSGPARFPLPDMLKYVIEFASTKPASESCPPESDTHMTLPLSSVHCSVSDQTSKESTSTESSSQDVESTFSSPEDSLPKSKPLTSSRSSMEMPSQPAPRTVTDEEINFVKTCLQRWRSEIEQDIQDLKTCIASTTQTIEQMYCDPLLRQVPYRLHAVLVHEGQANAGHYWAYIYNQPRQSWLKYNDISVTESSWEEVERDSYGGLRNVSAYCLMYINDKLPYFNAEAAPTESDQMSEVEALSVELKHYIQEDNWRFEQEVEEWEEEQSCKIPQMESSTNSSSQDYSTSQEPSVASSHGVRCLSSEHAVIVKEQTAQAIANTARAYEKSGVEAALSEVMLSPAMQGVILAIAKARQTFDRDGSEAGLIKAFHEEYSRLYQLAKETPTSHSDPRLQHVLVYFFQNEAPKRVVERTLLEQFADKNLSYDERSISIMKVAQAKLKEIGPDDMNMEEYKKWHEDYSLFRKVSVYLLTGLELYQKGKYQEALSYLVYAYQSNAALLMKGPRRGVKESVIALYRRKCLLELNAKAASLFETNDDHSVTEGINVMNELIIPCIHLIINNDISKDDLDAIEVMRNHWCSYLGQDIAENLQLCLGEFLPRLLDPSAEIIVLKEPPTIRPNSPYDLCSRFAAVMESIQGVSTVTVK
`C/C=C1/C2=CCCN3C(=O)O[C@H]([C@H]1O)[C@H]23` was tested, and the IC50 was 2.94 µM.
Molecule `COc1ccc(C2SCC(=O)Nc3c2c(=O)[nH]n3C2CCCCCC2)cc1` (configuration not stated) has an IC50 of 25.7 µM.
For `CCCC(=O)Nc1nc2ccc(CCC(=O)NCc3ccc(F)cc3)cc2s1`, the IC50 was 25.8 µM.
Work on `O=C(NCc1ccccc1Cl)c1ccc(-c2nnc(-c3ccccc3)o2)cc1` yielded an IC50 of 2.13 µM.
`COc1ccc(CCNC(=O)c2noc3c2CCc2sccc2-3)cc1OC` was tested, and the IC50 was 0.655 µM.
`Cc1ccc2c(c1)N(C)C(=O)c1cc(NC(=O)c3ccc(F)cc3)ccc1O2` gave an IC50 of 4.21 µM.
For `CO[C@H]1/C=C/OC2(C)Oc3c(C)c(O)c4c(c3C2=O)C2(C=C(NC(=O)/C(C)=C\C=C\[C@H](C)[C@H](O)[C@@H](C)[C@@H](O)[C@@H](C)[C@H](OC(C)=O)C1C)C4=O)OCC(=O)O2` (some centres not stated), the IC50 was > 50 µM (inactive).
`O=c1c2ccccc2c(-c2nc(-c3ccncc3)no2)cn1-c1ccccc1` was tested, and the IC50 was 2.56 µM.
`Cc1cccc(-n2cnc(C(=O)NCc3ccc(F)cc3)c2)n1` gave an IC50 of 35.6 µM.
Work on `COc1ccc(CNC(=O)c2[nH]nc3c2CCc2ccccc2-3)cc1` yielded an IC50 of 36.1 µM.
`O=C(Nc1ccc(N2CCOCC2)cc1)c1ccc(-c2ccc(N3CCCC3)nn2)cc1` was tested, and the IC50 was > 50 µM (inactive).
`CC(=O)c1ccc(Cc2ncc(C(F)(F)F)cc2Cl)s1` was tested, and the IC50 was 6.83 µM.
Molecule `COc1cc(C)c2c(=O)c3c(oc2c1)C(=O)c1c(O)c(OC)cc(O)c1C3=O` has an IC50 of 1.56 µM.
For `COc1cccc(NC(=O)C2Cc3ccccc3N2C(=O)c2ccccc2)c1` (configuration not stated), the IC50 was 22.6 µM.
`N#Cc1ccc(NC(=O)COC(=O)c2ccc3ccccc3n2)cc1` was tested, and the IC50 was > 50 µM (inactive).
`Cc1cc(=O)n(C)c2c(O)c3c(cc12)c(C)cc(=O)n3C` gave an IC50 of 43.9 µM.
For `CSc1cccc(C(=O)Nc2ccc(-c3nc4ccccc4[nH]3)cc2)c1`, the IC50 was 5.8 µM.
With `N#Cc1cccc(NC(=O)Cn2cccc(-c3nc(-c4ccccc4)no3)c2=O)c1` the IC50 was > 50 µM (inactive).
For `COc1ccccc1NS(=O)(=O)c1ccc2oc(SCC(=O)c3ccccc3)nc2c1`, the IC50 was > 50 µM (inactive).
Work on `Cc1c(C(=O)NCc2cccc(Br)c2)oc2c1-c1[nH]ncc1CC2` yielded an IC50 of 29.5 µM.
For `O=C(Nc1ccccc1Cl)N(Cc1cc2cc3c(cc2[nH]c1=O)OCCO3)C1CCCCC1`, the IC50 was 49.1 µM.
With `O=C(Nc1cc(-c2cccnc2)no1)c1ccc(F)c(F)c1` the IC50 was 10.9 µM.
`CCC[C@H]1O[C@@H]2CC(=O)O[C@@H]2C2=C1C(=O)c1c(O)cccc1C2=O` was tested, and the IC50 was 14.3 µM.
`COc1ccccc1-c1nc2c3c(C)c(C)n(Cc4cccnc4)c3ncn2n1` was tested, and the IC50 was 20.4 µM.
`O=C(Nc1ccc2c(c1)OCCO2)C1CCN(C(=O)c2cc(-c3cccnc3)n[nH]2)CC1` gave an IC50 of 16.2 µM.
With `c1ccc2c(Cc3nc(-c4ccncc4)no3)cccc2c1` the IC50 was 0.374 µM.
In the case of `COc1ccccc1-c1nc(-c2nnn(Cc3cccc(F)c3)c2C)no1`, the IC50 is reported as 10.4 µM.
Molecule `Cc1ccccc1C(=O)Nc1ccc(Cc2ccc(NC(=O)c3ccccc3C)c(O)c2)cc1O` has an IC50 of 43.7 µM.
`Cc1ccc(Cn2c(=O)c3ccccc3n3c(CCC(=O)N4CCN(c5ccccn5)CC4)nnc23)cc1` gave an IC50 of 5.55 µM.
`CC(C)c1cc2c(c(O)c1O)[C@@]13CCCC(C)(C)[C@@H]1C[C@@H]2OC3=O` was tested, and the IC50 was 23.9 µM.
For `Cc1cc(C)c(NC(=O)Cn2c(=O)n(CCC(=O)NCc3ccc4c(c3)OCO4)c(=O)c3sccc32)c(C)c1`, the IC50 was 2.67 µM.
`Cc1ccc(CNC(=O)Cn2c(=O)n(-c3ccccc3)c3ncccc32)cc1` was tested, and the IC50 was > 50 µM (inactive).
For `Cc1cc(Cl)ccc1Nc1nc(Nc2cccc(F)c2)nc2nccnc12`, the IC50 was > 50 µM (inactive).
In the case of `Cc1c(C(=O)c2ccccc2)c2ccccn2c1CCc1ccccn1`, the IC50 is reported as > 50 µM (inactive).
With `COc1ccc(NC(=O)c2sc(N3CCOCC3)nc2-c2ccccc2)c(OC)c1` the IC50 was 17 µM.
In the case of `COc1ccc(CC(=O)Nc2cccc(-c3nc4ncccc4o3)c2)cc1OC`, the IC50 is reported as > 50 µM (inactive).
Molecule `NS(=O)(=O)c1ccc(NC(=O)Cn2cnc3cc([N+](=O)[O-])ccc3c2=O)cc1` has an IC50 of 19.9 µM.
Molecule `O=C(Nc1nnc2n1CCCS2)c1cccc(Cl)c1` has an IC50 of 1.19 µM.
In the case of `COc1ccc(-c2cc3nc([C@@H](C)NC(=O)c4ccc5c(c4)OCO5)nn3cn2)cc1`, the IC50 is reported as 35.1 µM.
For `Cn1cc(-c2cnc(-c3cccc(F)c3)nc2)cc1C(=O)NCc1cccnc1`, the IC50 was 36.8 µM.
With `CN=C(N)NCCC/C=C/CCCC(C)CC(C)C1OC(=O)/C=C/C(C)C(O)CC(O)C(C)C(O)CCC(C)C(O)CC2(O)OC(CC(OC(=O)CC(=O)O)CC(O)CC(O)C(C)C(O)/C=C/C1C)CC(O)C2O` (configuration not stated) the IC50 was 19.8 µM.
Work on `COc1ccccc1NC(=O)Cn1cc(C(=O)c2ccc(C)cc2)c(=O)c2ccccc21` yielded an IC50 of 21.8 µM.
In the case of `CCn1c(=O)c2ccccc2n(Cc2nc(-c3ccccc3OC)no2)c1=O`, the IC50 is reported as > 50 µM (inactive).
`O=C(NCc1ccc(Br)cc1)c1ccc(-c2cccnc2)nc1` gave an IC50 of 21.7 µM.
Molecule `N#Cc1ccc(Cl)cc1NC(=O)COc1cccnc1[N+](=O)[O-]` has an IC50 of 49.8 µM.
For `CCOc1ccc2[nH]c(=O)c(CN(C(=O)c3cccs3)C3CCCC3)cc2c1`, the IC50 was 14.1 µM.
With `Nc1c(-c2ccc(Cl)cc2)cnc2nc(Sc3ncc(C(F)(F)F)cc3Cl)nn12` the IC50 was > 50 µM (inactive).
For `CCCCOc1ccc(C(=O)Nc2ccc3c(c2)CCC(=O)N3CCC)cc1`, the IC50 was 1.01 µM.
Work on `N#Cc1c(SCCO)nc(N2CCCC2)c2c1CCCC2` yielded an IC50 of 6.47 µM.
In the case of `COc1ccc(-c2nc(-c3nnn(Cc4ccc(F)cc4)c3C)no2)c(OC)c1`, the IC50 is reported as 5.4 µM.
`CC(C)(C)N=C1Nc2ncccc2NC12CCCN(C(=O)c1ccccc1)C2` (configuration not stated) was tested, and the IC50 was > 50 µM (inactive).
For `O=C(CN1C=NC2=NS(=O)(=O)c3ccccc3N21)Nc1cc(F)ccc1F`, the IC50 was 28 µM.
`COc1cccc2c1OCC(C(=O)NCc1ccc(F)cc1)=C2` was tested, and the IC50 was 21.6 µM.
Molecule `CC1(O)CC(=O)c2c(cc3cc(O)cc(O)c3c2O)C1` (configuration not stated) has an IC50 of 0.0671 µM.
In the case of `Cn1cccc1C(=O)N1CCCC2(C1)Nc1cccnc1NC2=NC1CCCC1` (configuration not stated), the IC50 is reported as > 50 µM (inactive).
With `CC(=O)c1cccc(NC(=O)c2ccc3[nH]c4c(c3c2)CC(C)CC4)c1` (configuration not stated) the IC50 was > 50 µM (inactive).
Work on `O=C(Cn1c(=O)n(Cc2ccccc2)c(=O)c2ncccc21)NCc1ccccc1Cl` yielded an IC50 of 25.9 µM.
With `COc1ccc(NC(=O)c2ccccc2OCC(=O)Nc2ccccc2C(F)(F)F)c(C)c1` the IC50 was 23.4 µM.
Work on `Cc1nc2cccnc2n1C1CCN(C(=O)c2cc3cc(Cl)ccc3[nH]2)C1` (configuration not stated) yielded an IC50 of 25.3 µM.
`CSc1ccccc1C(=O)Nc1sc2c(c1C(N)=O)CCC(C)C2` (configuration not stated) gave an IC50 of 2.78 µM.
`COc1ccc(Cn2cnc3c([nH]c4ccc(Br)cc43)c2=O)cc1` was tested, and the IC50 was 1.72 µM.
`CC(=O)Nc1cc(-c2cccc(O)c2)cn2c(-c3cnn(C)c3)cnc12` showed an IC50 of 5.99 µM.
`COc1ccc(C(=O)Nc2ccc3c(c2)Sc2ncccc2C(=O)N3C)cn1` was tested, and the IC50 was > 50 µM (inactive).
In the case of `CN(C)c1ccc(C2CC(c3c(O)n(C)c(=O)[nH]c3=O)=Nc3ccccc3S2)cc1` (configuration not stated), the IC50 is reported as 2.12 µM.
With `COc1cc(OC)c2c(c1)C(=O)C1=C(COC(C)(O)C1)C2=O` (configuration not stated) the IC50 was > 50 µM (inactive).
`COc1cccc(NC(=O)C2CCN(C(=O)c3cc(-c4cccnc4)n[nH]3)CC2)c1` showed an IC50 of 20.3 µM.
`COc1ccc(N(CC(=O)NC2CCCCC2)C(=O)c2ccc(-c3ccccc3)[nH]2)cc1OC` was tested, and the IC50 was 4.16 µM.
With `O=C(c1cc(-c2ccncc2)n[nH]1)N1CCC(C(=O)N2CC=C(c3ccccc3)CC2)CC1` the IC50 was 24.3 µM.
`Cc1ccc2[nH]c(=O)c(-c3nc4ccc(C)cn4c3NCc3ccc(F)cc3)cc2c1` gave an IC50 of 1.93 µM.
Work on `CC(C)Cc1nc2sc3c(NCCN4CCOCC4)ncnc3c2c2c1CCC2` yielded an IC50 of 0.828 µM.
`COc1cccc2c1C(=O)c1ccc3c(c1C2=O)C(=O)CC(C)(O)C3` (configuration not stated) was tested, and the IC50 was > 50 µM (inactive).
For `COc1ccc(C(=O)CSc2nnc(-c3cc4cccc(OC)c4o3)n2C)cc1OC`, the IC50 was > 50 µM (inactive).
